According to ChEMBL document CHEMBL3352431, “Furazan and furoxan sulfonamides are strong α-carbonic anhydrase inhibitors and potential antiglaucoma agents” (Bioorg Med Chem, 2014):

Key:
Carbonic anhydrase 9 = Carbonic anhydrase 9 (Homo sapiens, UniProt Q16790); assay: Inhibition of human CA9 by CO2 hydration activity based stopped flow assay
Oryctolagus cuniculus [1] = assay: Antiglaucoma activity in New Zealand rabbit model of hypertonic saline-induced ocular hypertension assessed as reduction in intraocular pressure dosed with 50 uL of 2% compound solution and measured after 1 to 2 hrs; type: functional, Eye
Oryctolagus cuniculus [2] = assay: Antiglaucoma activity in New Zealand rabbit model of hypertonic saline-induced ocular hypertension assessed as reduction in intraocular pressure dosed with 50 uL of 2% compound solution and measured after 2 hrs; type: functional, Eye
Oryctolagus cuniculus [3] = assay: Antiglaucoma activity in New Zealand rabbit model of carbomer-induced ocular hypertension assessed as reduction in intraocular pressure dosed with 50 uL of 2% compound solution and measured after 3 to 4 hrs; type: functional, Eye

| SMILES | Ki (Carbonic anhydrase 9) | further results |
| --- | --- | --- |
| NS(=O)(=O)c1nonc1Oc1ccccc1 | 6.3 nM |  |
| CCOc1nonc1S(N)(=O)=O | 6.6 nM |  |
| NS(=O)(=O)c1ccc(-c2nonc2Oc2ccccc2)cc1 | 71.1 nM |  |
| NS(=O)(=O)c1no[n+]([O-])c1-c1ccccc1 | 7.1 nM |  |
| NS(=O)(=O)c1ccc(OCc2nonc2-c2ccccc2)cc1 | 110 nM |  |
| NS(=O)(=O)c1nonc1-c1ccccc1 | 6.3 nM |  |
| NC(=O)c1c(COc2ccc(S(N)(=O)=O)cc2)no[n+]1[O-] | 32.3 nM | Activity (Oryctolagus cuniculus [1]): 5 mmHg |
| N#Cc1c(COc2ccc(S(N)(=O)=O)cc2)no[n+]1[O-] | 11.3 nM | Activity (Oryctolagus cuniculus [2]): 8 mmHg |
| Cc1c(S(N)(=O)=O)no[n+]1[O-] | 7.3 nM | Activity (Oryctolagus cuniculus [3]): 10 mmHg |
| NS(=O)(=O)c1ccc(-c2c(-c3ccccc3)no[n+]2[O-])cc1 | 58 nM |  |
| COc1nonc1S(N)(=O)=O | 5.8 nM |  |
| NS(=O)(=O)c1ccc(-c2c(Oc3ccccc3)no[n+]2[O-])cc1 | 63.9 nM |  |
| NS(=O)(=O)c1ccc(-c2nonc2S(=O)(=O)c2ccccc2)cc1 | 63.6 nM |  |
| NC(=O)c1nonc1COc1ccc(S(N)(=O)=O)cc1 | 49.8 nM | Activity (Oryctolagus cuniculus [1]): 5 mmHg |
| Cc1nonc1S(N)(=O)=O | 7.9 nM | Activity (Oryctolagus cuniculus [3]): 10 mmHg |
| NS(=O)(=O)c1ccc(-c2c([N+](=O)[O-])no[n+]2[O-])cc1 | 54.5 nM |  |

| SMILES | Ki (Carbonic anhydrase 9) | further results |
| --- | --- | --- |
| NS(=O)(=O)c1c(-c2ccccc2)no[n+]1[O-] | 7.4 nM |  |
| NS(=O)(=O)c1ccc(OCc2no[n+]([O-])c2-c2ccccc2)cc1 | 47.9 nM |  |
| CC(C)COc1nonc1S(N)(=O)=O | 3.9 nM |  |
| NS(=O)(=O)c1ccc(Oc2no[n+]([O-])c2S(=O)(=O)c2ccccc2)cc1 | 6.4 nM |  |
| NS(=O)(=O)c1ccc(-c2no[n+]([O-])c2-c2ccccc2)cc1 | 62.8 nM |  |
| NS(=O)(=O)c1ccc(-c2c(S(=O)(=O)c3ccccc3)no[n+]2[O-])cc1 | 34.5 nM |  |
| NS(=O)(=O)c1ccc(-c2c(Sc3ccccc3)no[n+]2[O-])cc1 | 5040 nM |  |
| Cc1no[n+]([O-])c1S(N)(=O)=O | 6.5 nM | Activity (Oryctolagus cuniculus [3]): 10 mmHg |
| NS(=O)(=O)c1nonc1OCc1ccccc1 | 5.8 nM |  |
| NS(=O)(=O)c1ccc(-c2nonc2[N+](=O)[O-])cc1 | 54.7 nM |  |
| NS(=O)(=O)c1ccc(-c2nonc2-c2ccccc2)cc1 | 62.9 nM |  |
| N#Cc1nonc1COc1ccc(S(N)(=O)=O)cc1 | 10.8 nM | Activity (Oryctolagus cuniculus [2]): 8 mmHg |
| NS(=O)(=O)c1ccc(-c2nonc2Sc2ccccc2)cc1 | 57.6 nM |  |
| NS(=O)(=O)c1ccc(Oc2nonc2S(=O)(=O)c2ccccc2)cc1 | 7.3 nM |  |
| CCCCOc1nonc1S(N)(=O)=O | 4.8 nM |  |
